{
  "source": "patent US20210378926A1",
  "about": "“A TOPICAL COMPOSITION” (priority 2018, published 2021)",
  "data": [
    {"system": "S. hominis (ATCC 27844)", "experiment": "Malodor Assay (H2S production, lead acetate paper blackening)", "format": "cell-based", "settings": "S. hominis culture in TSB with 0.1% L-cysteine-HCl, 96 well plate, 37° C. for about 16 hours; blackening of lead acetate paper scored 0 to 10 versus control (completely black); ingredient amounts in ppm as per Table 1", "protocol": "The efficacy of different ingredients and combinations were tried using the Malodor Assay protocol with S. hominis (ATCC 27844) as described below:\nThe malodour assay was done in a 96 well plate (Nunc™, ThermoFisher). First, a lead acetate paper was prepared as follows. A Whatman™ (No. 1) filter paper (150 mm, Cat No. 1001-150) was taken and cut to match the top cross-sectional dimension of the 96 well plate. 1% Lead acetate (Hi Media, RM 757) solution was prepared in distilled water and the Whatman™ filter paper was soaked in the prepared lead acetate solution. The excess solution from the filter paper was drained and allowed to dry in a Laminar Air Flow for 1 hour. After drying, the filter paper was wrapped in an Aluminium foil and autoclaved at 121° C. for about 20 minutes. This lead acetate paper was used for the assay to capture the malodour generation at the later stage.\nA TSB broth solution was prepared by adding 0.1% L-cysteine-HCl (Sigma, C1276) into TSB (Bacto, 211825, 30 g/L) and autoclaved. After that, the 96 well plate was taken followed by addition of 180 μL/well of the above prepared TSB solution into the wells. Then 20 μL/well of S. hominis culture ([…]) was added to the wells. Different ingredient and/or mix of ingredients as per following Table 1 were added into the wells along with a control (only distilled water and bacteria) as per the required concentration (as mentioned in Table 1). Finally, the lead acetate paper that was prepared previously was placed on the wells of the 96-well plate and the lid was closed. This plate was then incubated in an incubator (LABTOP, bacteriological incubator) at 37° C. for about 16 hours. The lid of the plate was opened after the incubation and observed the lead acetate paper for any visual change in colour. […] The results and the effect of actives were compared with the control (completely black).\nThe results of these experiments are expressed in terms of “% reduction” in H2S production which is determined from the blackening of the spot as explained above. Each spot with different test samples has been compared with the control (completely black) sample. It was then rated on a scale of 0 to 10 (10 being completely black as like control and 0 is no blackening). From the score the percentage reduction was evaluated e.g. if the blackening of any sample is as dark as control then the score given was “8-10” and accordingly % reduction is <20%.", "values": [
      {"smiles": "C=CCc1ccc(O)c(-c2ccc(O)c(CC=C)c2)c1", "note": "[C, honokiol]", "% reduction in H2S production": "20-40%"},
      {"smiles": "C=CCc1ccc(O)c(-c2cc(CC=C)ccc2O)c1", "note": "[D, magnolol]", "% reduction in H2S production": "<20%"},
      {"smiles": "O=S(=O)([O-])[O-].[Fe+2]", "note": "[G, FeSO4]", "% reduction in H2S production": "<20%"},
      {"smiles": "O=S(=O)([O-])[O-].[Cu+2]", "note": "[J, CuSO4]", "% reduction in H2S production": "<20%"},
      {"smiles": "O=S(=O)([O-])[O-].[Cu+2]", "note": "[K, CuSO4]", "% reduction in H2S production": "20-40%"}
    ]}
  ]
}
